According to patent US7867998B2, “Method of making antitussive medicine and relieving cough” (Hong Kong Jockey Club Institute of Chinese Medicine Limited, priority 2005, dated 2011):

Assays:
[1] = system: guinea pigs; assay: Antitussive assay: citric acid aerosol-induced cough in conscious guinea pigs, intragastric administration; format: in vivo, guinea pig; settings: 0.5 M citric acid aerosol for 10 min, versus 1st challenge, HCl salt form in saline
Description: Unrestrained conscious guinea pigs were individually placed in a transparent Perspex airtight chamber and exposed to 0.5 M citric acid aerosol produced by an ultrasonic nebulizer (NEU12, Omron, Tokyo, Japan) for 10 min with a flow rate of 0.6 ml/min. During the 10 min observation period, the animals were continuously observed, and the numbers and timing of typical body movement of cough responses including opening the mouth, contraction of thoracic and abdomen muscles and a jerking of the front body were noted. The cough sounds were concurrently picked up via a microphone which connected to a personal computer and analyzed by Cool Edit 2000 software (Syntrillium, Phenix, USA). Thus a cough response can be differentiated from a sneeze and other background noises by observation of body movements, cough sound from loudspeakers and wave patterns recorded in the computer. Animals producing cough more than 18 times but less than 30 in the first challenge were selected for further antitussive tests. Cough episodes during the first challenge were recorded as control data. After 72 hour recovery, the selected sensitive animals were randomly divided into several groups with six animals in each group. The test samples were changed to their salt forms with 4% HCl to dissolve in saline and administrated intragastrically.
In the present experiments, neotuberostemonine produced a reduction in cough episodes by 17 and 40% (P<0.01 versus 1st challenge) at 25 and 50 mg/kg i.g., respectively. […] These two alkaloids are different from neotuberostemonine in molecular skeletons (i.e., base structures). Neotuberostemonine belongs to the stenine group while croomine and stemoninine belong to the tuberostemospironine and stemoamide groups, respectively. […] Since croomine and stemoninine are the major components of Radix Stemonae, they provided scientific evidence for the use of Radix Stemonae for cough treatment in folk medicines and in PRC Pharmacopeia.

[2] = system: cough; settings: intraperitoneal, at the same dosage; Chung et al., Planta Med. 2003; cited from earlier work

| Compound | reduction in cough episodes ([1]; 25 mg/kg i.g.) [%] | reduction in cough episodes ([1]; 50 mg/kg i.g.) [%] | inhibition (of cough) [2] [%] |
| --- | --- | --- | --- |
| CC[C@H]1[C@H]2[C@@H](CCCN3[C@H]2CC[C@H]3[C@@H]2C[C@H](C)C(=O)O2)O[C@]12C=C(C)C(=O)O2 [Stemoninine] | 32 | 66 | – |
| C[C@@H]1C[C@]2(CCCCN3[C@H]2CC[C@H]3[C@@H]2C[C@H](C)C(=O)O2)OC1=O [croomine, Croomine] | 35 | 57 | – |
| CC[C@@H]1[C@H]2CCCCN3[C@H]2[C@@H](C[C@H]3[C@@H]2C[C@H](C)C(=O)O2)[C@H]2[C@@H]1OC(=O)[C@H]2C [neotuberostemonine, reference compound] | 17 | 40 | 85 |
